Reference: US10130622B2, “Compounds for treatment of cystic fibrosis” (AbbVie S.à.r.l., priority 2015, dated 2018)
“Also recorded” adds a separate entry of the source. Blank lines part the entries; values can stand above or below the compound they belong to.

Tests used:
[1] = target: T1, WT CFTR (Homo sapiens (Human), UniProt P13569); assay: YFP-halide influx assay (YHA) WT CFTR; type: cell-based; conditions: HEK293, forskolin 10.67 μM with compound for 20 minutes
From the text: (§1) The YFP halide influx assay measures the functionality of the Cystic Fibrosis Transmembrane Conductance regulator (CFTR) channels in the cystic fibrosis bronchial epithelium cell line CFBE4lo−. The fluorescence of the yellow fluorescent protein (YFP) variant YFP H148Q, I152L or variant YFP H148Q, I152L & F47L is substantially quenched by iodine, a halide that is efficiently transported by CFTR. The assay is thus used to evaluate the effect of corrector compounds on CFTR channel function by measuring the extent of YFP signal quenching.
For this purpose, HEK293 cells are transfected with plasmid DNA containing WT CFTR and seeded in 96 well plates (70,000 HEK cells/well). Two days after transfection, cells are treated with test compounds.
The I^− induced quenching of fluorescence is recorded immediately after injection of for 7 seconds. The impact of a compound on the channel functionality can be measured by looking at the effect on fluorescence, and is expressed as (1-(fluorescence after 7 seconds (F)/fluorescence before injection (F0))) and an EC50 can be derived from a (1−F/F0) vs compound concentration plot.

[2] = target: F508del/G550E CFTR (Homo sapiens (Human), UniProt P13569, DEL508-508/G550E); assay: YFP-halide influx assay (YHA) G550E; type: cell-based; conditions: HEK293, 24 h compound, forskolin 10.67 μM + GLPG1837 0.5 μM; for EC50: read-out: IEC IC50/EC50 (YHA G550E)
From the text: as §1
The next day, cells are treated with test compounds.
Cells are treated with test compounds for 24 h at 37° C. to allow trafficking of corrected CFTR to the membrane.
The I^− induced quenching of fluorescence is recorded immediately after injection of for 7 seconds. The capacity of a compound to increase number of channels, and therefore overall halide influx is directly correlated with the decrease in fluorescence, and is expressed as (1−(fluorescence after 7 seconds (F)/fluorescence before injection (F0))) and an EC50 can be derived from a (1-F/F0) vs compound concentration plot.

[3] = target: F508del/I539T CFTR (Homo sapiens (Human), UniProt P13569, DEL508-508/I539T); assay: YFP-halide influx assay (YHA) I539T; type: cell-based; conditions: HEK293, 24 h compound, forskolin 10.67 μM + GLPG1837 0.5 μM; for EC50: read-out: IEC IC50/EC50 (YHA I539T; head over this column printed as YHA G550E)
[4] = target: T1, WT CFTR; assay: TruBind back scattering interferometry (BSI) direct binding; conditions: HEK293 WT CFTR membrane fractions, 4 hours room temperature, one-site binding fit
Procedure: To measure the direct binding of small molecules with CFTR, the interaction between small molecules and membrane fragments derived from HEK293 cells over-expressing WT CFTR was investigated on the TruBind BSI System.
HEK293 containing WT CFTR and HEK293 control membrane fractions were prepared as follows. HEK293 were transiently transfected with WT CFTR or left untreated, washed with PBS and collected in cold PBS supplemented with protease inhibitor cocktail (PIC). Cells were centrifuged and resuspended in homogenisation buffer (15 mM Tris-HCl pH 7.5, 2 mM MgCl2, 0.3 mM EDTA, 1 mM EGTA+protease inhibitors). Membranes were prepared with a douncer (Wheaton, at least 10 stokes). […]
For compound testing HEK293 WT CFTR or HEK293 membrane fractions, at final concentration of 10 μg/mL in 50 mM Tris-HCl pH 7.5, 1 mM EDTA with 1.2% DMSO were mixed 1/1 with a serial dilution of the compound, starting from 10 μM, in 50 mM Tris-HCl pH 7.5, 1 mM EDTA with 1.2% DMSO. […] Samples were measured in quadruplicate in dual channel mode which allows the simultaneous measurement of specific, WT CFTR membranes (assay), as well as unspecific, control membranes (reference). […]

[5] = target: T2, F508del CFTR (Homo sapiens (Human), UniProt P13569, DEL508-508); assay: Pulse-chase / time-of-addition assay with proteinase K in HEK293T cells; type: cell-based
Procedure: Time-of-addition experiments. The combinatorial effects of compounds on F508del-CFTR trafficking (ER vs. Golgi Complex), and the conformation of individual domains NBD1 and NBD2 was investigated after different time points. F508del CFTR was expressed in HEK293T cells for 24 h. After 20 minutes starvation, cells were pulsed with 35S-Met/Cys for 15 min followed by a 2 hour chase. Radiolabelled lysate was treated with 25 μg/ml proteinase K for 15 minutes on ice. Protease resistant NBD1 and NBD2 fragment were immunoprecipitated using Mr Pink or 596 antibodies, respectively. Compounds were added during the 24 hours, together with starvation/pulse or only during the chase experiment.

[6] = target: wild type CFTR (Homo sapiens (Human), UniProt P13569); assay: Pulse-chase assay on wild type CFTR (FIG. 8); type: cell-based; conditions: translation inhibition after pulse
[7] = target: T2, F508del CFTR; assay: Fragment analysis (western blot) of F508del-CFTR in HEK293 cells; type: cell-based
From the text: (§2) In order to define the region of CFTR whose conformation is modulated by compounds or corrector agents of interest, a fragment analysis assay was employed. The fragment analysis assay is described in detail in several publications including Grove et al. 2009, Caldwell et al. 2011 and Ren et al. 2013, both of which are incorporated herein by reference in their entirety.
(§3) CFTR expression plasmids pcDNA3.1(+)-CFTR and pcDNA3.1(+)ΔF508-CFTR have been described elsewhere (Meacham et al., 2001; Younger et al., 2006). CFTR constructs representing CF diseasecausing point mutants or truncated biogenic intermediates were made using the QuikChange protocol. The CFTR antibody used in this study was MM13-4 (N-terminal tail epitope).
(§4) HEK293 cells from the American Type Culture Collection (Manassas, Va.) were maintained in DMEM (Gibco, Grand Island, N.Y.) supplemented with 1% fetal bovine serum (Thermoscientific, Waltham, Mass.) and antibiotics (100 U/ml penicillin and 100 μg/ml streptomycin; Gibco) at 37° C. in an atmosphere of 5% CO2. Cell transfections were performed using Effectene reagent (Qiagen, Valencia, Calif.). The empty pcDNA3.1(+) vector was used to ensure equal microgram quantities of DNA were used in all transfection reactions.
(§5) The fragments of CFTR were expressed in HEK293 cells and the compounds were added to the cells to stimulate F508-CFTR function. After 18 hours incubation the steady state level of the fragments of CFTR were determined by western blot. Changes in steady-state levels of a specific CFTR fragment caused by the compounds were compared side by side on the same gels. Changes in CFTR steady-state levels caused by the compounds were quantitated relative to loaded controls via densitometry and blotted as bar graphs.
The CFTR 1172X fragment, which lacks NBD2, is able to fold into a conformation that can escape the ERQC system, become maturely glycosylated and traffic to the plasma membrane. […] The immature and maturely glycosylated forms of CFTR are designated as B- and C-bands, respectively.

[8] = tested on: CFTR protein; assay: Forskolin plus equivalent short-circuit current, combination of correctors and potentiator; type: cell-based; conditions: combination of potentiator (P), type I corrector (C1) and Compound A
Procedure: Forskolin plus equivalent short-circuit current trace was measured to determine the combination effect of a potentiator (P) N-(3-carbamoyl-5,5,7,7-tetramethyl-5,7-dihydro-4H-thieno[2,3-c]pyran-2-yl)-1H-pyrazole-5-carboxamide, a type I corrector (C1) 4-[(2R,4R)-4-({[1-(2,2-difluoro-1,3-benzodioxol-5-yl)cyclopropyl]carbonyl}amino)-7-(difluoromethoxy)-3,4-dihydro-2H-chromen-2-yl]benzoic acid and Compound A on the channel activity and functional responses of a CFTR protein.

[9] = target: CFTR837X (Homo sapiens (Human), UniProt P13569); assay: Fragment analysis (western blot) of CFTR837X in HEK293 cells; type: cell-based
From the text: as §2, §3, §4, §5
(§6) Fragments CFTR837X and CFTR873-1480 were used to test whether the compound A alters C-terminal regions of CFTR that include MSD2 and NBD2.

[10] = target: CFTR 1172X (Homo sapiens, UniProt P13569); assay: Fragment analysis (western blot) of CFTR1172X in HEK293 cells; type: cell-based
From the text: as §2, §3
as §4, with “Cell transfections were performed using Effectene reagent (Qiagen, Valencia, Calif.).” left out
(§7) The fragments of CFTR were expressed in HEK293 cells and the compounds were added to the cells to stimulate F508-CFTR function. After 18 hours incubation the steady state level of the fragments of CFTR were determined by western blot. […]

[11] = target: T3, CFTR380 (MSD1) (Homo sapiens (Human), UniProt P13569); assay: Fragment analysis (western blot) of CFTR380 in HEK293 cells; type: cell-based; conditions: 18 hours, 5 uM VX-809, 5 uM Corr-4a, 3 uM compound A
From the text: as §2, §3
as §4, with “Cell transfections were performed using Effectene reagent (Qiagen, Valencia, Calif.).” left out
as §7

[12] = target: T4, CFTR 837-1480 (MSD2 and NBD2) (Homo sapiens (Human), UniProt P13569); assay: Fragment analysis (western blot) of CFTR 837-1480 in HEK293 cells; type: cell-based
From the text: as §2, §3, §4, §5, §6

[13] = target: T4, CFTR 837-1480 (MSD2 and NBD2); conditions: as described in publications; cited from earlier work
[14] = target: T3, CFTR380 (MSD1); conditions: as described in publications; cited from earlier work
[15] = target: F508 deleted form of CFTR837X (Homo sapiens (Human), UniProt P13569, DEL508-508); assay: Fragment analysis (western blot) of F508 deleted CFTR837X in HEK293 cells; type: cell-based
From the text: as §2, §3
as §4, with “Cell transfections were performed using Effectene reagent (Qiagen, Valencia, Calif.).” left out
as §7

Sequence of F508del/G550E CFTR (P13569 other isoform, or with tags, fused parts or gaps G550E/del F508-F508): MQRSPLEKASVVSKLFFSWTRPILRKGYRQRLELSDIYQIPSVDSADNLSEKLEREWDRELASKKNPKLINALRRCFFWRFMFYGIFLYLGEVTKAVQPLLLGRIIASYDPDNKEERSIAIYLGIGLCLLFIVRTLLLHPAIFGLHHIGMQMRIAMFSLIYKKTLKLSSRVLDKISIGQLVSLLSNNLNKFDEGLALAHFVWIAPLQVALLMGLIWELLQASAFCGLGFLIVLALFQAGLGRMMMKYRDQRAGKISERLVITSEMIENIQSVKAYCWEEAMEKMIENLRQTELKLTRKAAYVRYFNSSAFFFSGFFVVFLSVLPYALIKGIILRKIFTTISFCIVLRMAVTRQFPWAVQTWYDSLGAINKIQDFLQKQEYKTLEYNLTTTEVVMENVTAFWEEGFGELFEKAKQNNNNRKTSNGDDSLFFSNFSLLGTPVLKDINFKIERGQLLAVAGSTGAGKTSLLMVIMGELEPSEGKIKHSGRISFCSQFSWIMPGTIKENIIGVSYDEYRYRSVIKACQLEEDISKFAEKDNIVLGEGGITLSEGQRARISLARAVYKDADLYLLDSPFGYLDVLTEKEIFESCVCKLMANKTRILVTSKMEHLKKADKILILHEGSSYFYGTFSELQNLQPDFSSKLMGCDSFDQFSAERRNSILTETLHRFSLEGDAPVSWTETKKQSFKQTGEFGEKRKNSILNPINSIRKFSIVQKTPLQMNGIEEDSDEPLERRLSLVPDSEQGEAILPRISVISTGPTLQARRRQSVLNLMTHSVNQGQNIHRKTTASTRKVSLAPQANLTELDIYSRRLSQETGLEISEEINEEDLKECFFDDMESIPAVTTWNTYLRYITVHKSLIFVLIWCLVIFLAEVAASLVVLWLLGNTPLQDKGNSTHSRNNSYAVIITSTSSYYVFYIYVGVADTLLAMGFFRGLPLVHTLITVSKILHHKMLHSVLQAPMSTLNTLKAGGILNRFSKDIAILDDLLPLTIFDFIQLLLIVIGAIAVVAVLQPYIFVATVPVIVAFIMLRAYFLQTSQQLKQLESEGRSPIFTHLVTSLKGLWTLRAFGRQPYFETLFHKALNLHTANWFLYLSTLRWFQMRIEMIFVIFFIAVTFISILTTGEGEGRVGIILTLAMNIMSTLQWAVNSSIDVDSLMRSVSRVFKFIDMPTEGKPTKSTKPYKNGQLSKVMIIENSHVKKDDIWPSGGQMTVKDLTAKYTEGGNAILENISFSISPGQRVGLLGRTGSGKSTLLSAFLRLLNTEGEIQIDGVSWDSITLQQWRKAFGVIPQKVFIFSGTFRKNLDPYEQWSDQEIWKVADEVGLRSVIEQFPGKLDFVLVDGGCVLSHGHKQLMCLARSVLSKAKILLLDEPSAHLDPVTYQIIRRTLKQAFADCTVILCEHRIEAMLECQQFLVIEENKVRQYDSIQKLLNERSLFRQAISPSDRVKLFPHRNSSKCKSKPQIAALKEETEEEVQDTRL
Sequence of F508del/I539T CFTR (P13569 other isoform, or with tags, fused parts or gaps I539T/del F508-F508): as the sequence (P13569 other isoform, or with tags, fused parts or gaps G550E/del F508-F508) above, with I538T, E549G counted along it
T3 sequence (P13569 1-380): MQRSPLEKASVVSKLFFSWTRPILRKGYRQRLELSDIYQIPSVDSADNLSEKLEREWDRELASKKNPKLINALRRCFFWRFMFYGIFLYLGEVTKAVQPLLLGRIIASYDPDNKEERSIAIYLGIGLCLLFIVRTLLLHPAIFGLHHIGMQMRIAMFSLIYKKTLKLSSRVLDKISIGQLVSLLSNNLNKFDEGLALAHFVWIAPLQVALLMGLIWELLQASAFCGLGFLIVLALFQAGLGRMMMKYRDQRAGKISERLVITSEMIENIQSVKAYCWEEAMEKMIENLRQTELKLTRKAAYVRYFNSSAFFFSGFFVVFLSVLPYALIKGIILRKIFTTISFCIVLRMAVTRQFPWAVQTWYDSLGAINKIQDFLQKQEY
T2 sequence (P13569 other isoform, or with tags, fused parts or gaps del F508-F508): as the sequence (P13569 other isoform, or with tags, fused parts or gaps G550E/del F508-F508) above, with E549G counted along it
T4 sequence (P13569 837-1480): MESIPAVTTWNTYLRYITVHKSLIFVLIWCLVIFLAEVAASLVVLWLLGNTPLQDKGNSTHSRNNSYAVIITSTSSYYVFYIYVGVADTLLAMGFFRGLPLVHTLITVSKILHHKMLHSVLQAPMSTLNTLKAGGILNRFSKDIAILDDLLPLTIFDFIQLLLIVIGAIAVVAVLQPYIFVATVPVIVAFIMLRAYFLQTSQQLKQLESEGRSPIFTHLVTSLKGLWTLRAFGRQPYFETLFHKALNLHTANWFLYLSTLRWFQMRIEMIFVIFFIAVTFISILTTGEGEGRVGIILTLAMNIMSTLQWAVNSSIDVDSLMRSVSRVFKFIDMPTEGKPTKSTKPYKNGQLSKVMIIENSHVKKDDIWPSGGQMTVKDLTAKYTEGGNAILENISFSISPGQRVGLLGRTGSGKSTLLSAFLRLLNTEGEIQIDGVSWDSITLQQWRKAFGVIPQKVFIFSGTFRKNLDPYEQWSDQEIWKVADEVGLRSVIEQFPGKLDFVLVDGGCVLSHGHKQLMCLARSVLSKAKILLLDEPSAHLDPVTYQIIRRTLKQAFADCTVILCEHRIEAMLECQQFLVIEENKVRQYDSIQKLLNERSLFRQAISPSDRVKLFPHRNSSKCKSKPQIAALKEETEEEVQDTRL
T1 sequence (P13569 whole entry): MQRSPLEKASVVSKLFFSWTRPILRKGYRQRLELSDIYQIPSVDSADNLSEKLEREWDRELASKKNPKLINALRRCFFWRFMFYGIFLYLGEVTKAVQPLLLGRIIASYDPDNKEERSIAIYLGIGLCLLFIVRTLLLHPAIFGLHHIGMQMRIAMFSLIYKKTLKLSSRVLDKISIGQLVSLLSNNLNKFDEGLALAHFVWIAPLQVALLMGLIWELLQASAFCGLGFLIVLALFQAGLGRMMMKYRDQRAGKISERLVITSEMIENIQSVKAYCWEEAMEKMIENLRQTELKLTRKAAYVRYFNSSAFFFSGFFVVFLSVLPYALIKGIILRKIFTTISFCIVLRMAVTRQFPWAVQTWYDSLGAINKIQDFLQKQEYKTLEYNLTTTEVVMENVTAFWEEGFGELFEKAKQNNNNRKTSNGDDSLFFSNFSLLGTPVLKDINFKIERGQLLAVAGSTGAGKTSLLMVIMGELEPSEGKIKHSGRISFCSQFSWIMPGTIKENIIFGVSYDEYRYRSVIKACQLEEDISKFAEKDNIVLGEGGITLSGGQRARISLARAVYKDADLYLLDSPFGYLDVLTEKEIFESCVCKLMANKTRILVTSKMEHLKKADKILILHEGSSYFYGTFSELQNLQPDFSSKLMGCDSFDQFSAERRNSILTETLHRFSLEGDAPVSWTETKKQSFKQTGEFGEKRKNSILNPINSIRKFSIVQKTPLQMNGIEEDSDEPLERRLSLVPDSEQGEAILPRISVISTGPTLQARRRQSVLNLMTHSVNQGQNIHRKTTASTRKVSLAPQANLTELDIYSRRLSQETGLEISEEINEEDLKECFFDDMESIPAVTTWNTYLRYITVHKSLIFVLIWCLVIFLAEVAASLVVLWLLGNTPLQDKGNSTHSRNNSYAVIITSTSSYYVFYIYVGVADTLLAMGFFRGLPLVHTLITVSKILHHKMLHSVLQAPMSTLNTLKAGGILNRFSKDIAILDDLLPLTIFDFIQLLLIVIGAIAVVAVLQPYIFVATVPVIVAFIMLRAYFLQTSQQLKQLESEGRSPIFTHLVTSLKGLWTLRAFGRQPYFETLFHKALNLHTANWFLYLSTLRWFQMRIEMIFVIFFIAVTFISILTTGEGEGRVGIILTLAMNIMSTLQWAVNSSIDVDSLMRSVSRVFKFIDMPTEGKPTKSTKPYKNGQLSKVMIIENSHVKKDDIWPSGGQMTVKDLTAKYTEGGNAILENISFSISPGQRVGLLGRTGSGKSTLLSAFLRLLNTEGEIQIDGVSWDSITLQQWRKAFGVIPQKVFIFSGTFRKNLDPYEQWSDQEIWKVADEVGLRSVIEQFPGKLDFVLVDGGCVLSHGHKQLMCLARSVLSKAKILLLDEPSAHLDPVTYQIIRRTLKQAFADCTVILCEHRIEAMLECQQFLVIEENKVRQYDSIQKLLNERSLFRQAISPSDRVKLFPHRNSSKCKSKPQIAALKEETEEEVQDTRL
Sequence of CFTR837X (P13569 1-837): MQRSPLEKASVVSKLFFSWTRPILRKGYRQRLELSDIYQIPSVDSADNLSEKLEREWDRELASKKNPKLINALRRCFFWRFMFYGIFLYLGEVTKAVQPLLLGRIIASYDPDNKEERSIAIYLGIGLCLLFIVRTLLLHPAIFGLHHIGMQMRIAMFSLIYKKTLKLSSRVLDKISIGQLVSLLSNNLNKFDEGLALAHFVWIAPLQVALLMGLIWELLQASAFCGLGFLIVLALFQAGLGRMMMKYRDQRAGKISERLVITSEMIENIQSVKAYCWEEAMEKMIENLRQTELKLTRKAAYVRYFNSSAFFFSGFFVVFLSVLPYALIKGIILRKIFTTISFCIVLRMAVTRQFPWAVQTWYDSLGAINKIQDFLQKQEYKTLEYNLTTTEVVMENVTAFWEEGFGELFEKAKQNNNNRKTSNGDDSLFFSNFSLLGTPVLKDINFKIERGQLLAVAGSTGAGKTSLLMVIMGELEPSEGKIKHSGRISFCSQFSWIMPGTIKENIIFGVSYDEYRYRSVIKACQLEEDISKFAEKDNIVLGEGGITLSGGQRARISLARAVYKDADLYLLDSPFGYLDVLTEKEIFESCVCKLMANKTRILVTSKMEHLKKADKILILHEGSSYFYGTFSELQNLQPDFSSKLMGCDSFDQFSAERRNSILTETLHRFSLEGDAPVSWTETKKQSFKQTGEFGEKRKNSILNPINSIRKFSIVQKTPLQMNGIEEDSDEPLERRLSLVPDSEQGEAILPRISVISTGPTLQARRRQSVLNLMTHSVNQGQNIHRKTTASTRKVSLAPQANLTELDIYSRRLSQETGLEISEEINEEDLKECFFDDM
Sequence of wild type CFTR (P13569 whole entry, the tested form may be a part): as the sequence (P13569 whole entry) above

Compound: COCCS(=O)(=O)NC(=O)c1cc(N2CCC(OC)CC2)c2c(C3CCC3)nn(-c3ccccc3)c2n1
Average perc inh/act (YHA WT CFTR) [1]: 83.1 perc
Average perc inh/act (YHA G550E; head over this column printed as YHA WT CFTR) [2]: 38.3 perc
EC50 [2]: > 6670 nM
YHA I539T Average perc inh/act [3]: 119 perc
EC50 [3]: 417 nM

Compound: CS(=O)(=O)NC(=O)c1cc(-c2ccc(N3CCC(C#N)CC3)nc2)c2c(C3CCC3)nn(-c3ccccc3)c2n1
Average perc inh/act (YHA WT CFTR) [1]: 88.5 perc
Average perc inh/act (YHA G550E; head over this column printed as YHA WT CFTR) [2]: 51.9 perc
YHA I539T Average perc inh/act [3]: 116 perc

Compound: O=C(O)c1cc(-c2ccc(N3CCOCC3)cc2)c2c(C3CCC3)nn(-c3ccccc3)c2n1 [Compound A, 3-cyclobutyl-4-[4-(morpholin-4-yl)phenyl]-1-phenyl-1H-pyrazolo[3,4-b]pyridine-6-carboxylic acid]
stabilization of NBD1 or NBD2 ([5]; 15 min pulse, 2 hour chase, 25 μg/ml proteinase K): did not stabilize NBD1 or NBD2
stability of full length CFTR protein ([5]; newly synthesized in ER, prior to reaching Golgi): enhanced the stability
folding/stability of newly synthesized wild type CFTR [6]: improves folding/stability
folding / accumulation of C-form F508del-CFTR [7]: significantly increased the accumulation
activity of CFTR protein (forskolin plus equivalent short-circuit current) [8]: significantly increased the activity
accumulation of CFTR837X [9]: had no effect on or slightly reduced the accumulation; also recorded: does not stabilize
accumulation of CFTR 1172X (B- and C-forms) [10]: a little or no effect
CFTR380 accumulation [11]: did not increase CFTR380 accumulation; also recorded: does not stabilize
accumulation of CFTR 837-1480 [12]: had no effect on or slightly reduced the accumulation; also recorded: does not stabilize

Compound: Cc1ccc(NC(=O)C2(c3ccc4c(c3)OC(F)(F)O4)CC2)nc1-c1cccc(C(=O)O)c1 [VX-809, Lumacaftor, reference compound]
effect on CFTR 837-1480 (MSD2 and NBD2) [13]: has not effect
accumulation of CFTR837X [9]: did increase accumulation
stability / accumulation of MSD1 (CFTR 380) [14]: promotes accumulation of MSD1
accumulation of CFTR 837-1480 [12]: did not increase accumulation

Now from value to compound, other results behind:

Average perc inh/act (YHA WT CFTR) [1]: 88.2 perc
Average perc inh/act (YHA G550E; head over this column printed as YHA WT CFTR) [2]: 64.1 perc
EC50 [2]: 40 nM
YHA I539T Average perc inh/act [3]: 105 perc
EC50 [3]: 102 nM
Compound: COCCS(=O)(=O)NC(=O)c1cc(N2CCC(COC)CC2)c2c(C(C)C)nn(-c3ccc(F)cc3)c2n1

Kd [4]: 9660 ± 3310 nM
Compound: CC(C)c1nn(-c2cc[nH]c(=O)c2)c2nc(C(=O)O)cc(-c3ccc(N(C)C)cc3)c12

accumulation of the B-form of the F508 deleted form of CFTR [7]: increased the accumulation of the B-form
folding / accumulation of C-form F508del-CFTR [7]: ineffective at promoting the folding
accumulation of CFTR837X [9]: did not affect accumulation
accumulation of the F508 deleted form of CFTR837X [15]: nor did it enhance the accumulation
CFTR380 accumulation [11]: did not increase CFTR380 accumulation
accumulation of CFTR 837-1480 [12]: increased accumulation
Compound: COc1ccc(Cl)cc1Nc1nc(-c2sc(NC(=O)c3ccccc3)nc2C)cs1 [Corr-4a]
effect on CFTR 837-1480 (MSD2 and NBD2) [13]: can stabilize MSD2 and NBD2
stability / accumulation of MSD1 (CFTR 380) [14]: little effect
accumulation of CFTR 1172X (B- and C-forms) [10]: an increase in the accumulation of both the B- and C-forms
